In experiment [1] the target is NR1/NR2B (Homo sapiens (Human), UniProt Q13224). Briefly: Cell assay: FDSS Ca2+ influx inhibition in HEK293 cells expressing NR1/NR2B.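 Further: Fluo-8 Ca2+ signal read on Hamamatsu FDSS 6000 after glutamate, glycine and Ca2+ challenge following 10 min compound preincubation, end/baseline fluorescence ratio compared with MK801 control.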
Procedure: (§1) Cell Culture and plating: HEK293 cells expressing NR1/NR2B (Chantest, Cleveland, Ohio) were grown to 70-80% confluency as an adherent monolayer in standard tissue culture flasks at 37° C., 5% CO2 per supplier's instructions. NR2B expression was induced by incubation with 0.3-0.4 μg/ml tetracycline in the presence of 4 mM ARL-15896 for 18-24 hours under the same growth conditions, then transferred to 30° C. for another 3-5 hours.
(§2) After induction, cell culture medium was removed and cells were rinsed once with Ca^2+ and Mg^2+-free Dulbecco's phosphate buffered saline. Cells were then removed from the flask using TrypLE™ Express (Life Technologies) according to the manufacturer's instructions and collected to 50 ml centrifuge tubes. Following two washes in Ca^2+/Mg^2+-free HBSS with 20 mM HEPES (HHnoCa), cells were counted and viability assessed using trypan blue. To load cells with Ca^2+-sensitive dye, they were resuspended in fluo-8 plus Component B (AAT Bioquest Products) diluted in HHnoCa and incubated 15 minutes at 37° C., followed by 30 minutes at room temp (in dark). Cells were then washed and resuspended in HHnoCa to remove extracellular dye and plated in 384-well plates (Falcon, uncoated) at 20,000-30,000 cells/well in a final volume of 25 μl/well.
(§3) FDSS Assay: To each well of the plate, 10 μL test compound, control (MK801) or HHnoCa buffer was added to a final concentration of 10 μM with a final concentration of DMSO of 0.1%. Following 10 minutes pre-incubation in the dark, plates are loaded onto the Hamamatsu FDSS 6000. After collecting baseline fluorescence images, 3 μM glutamate, 3 glycine, and 1 mM Ca^2+ in HHnoCa buffer is added to each well, and Ca^2+ is recorded for 3 minutes. Data were processed by computing ratio of fluorescence at the end of data collection to baseline fluorescence to assess degree of Ca′ influx inhibition relative to that observed in MK801.
The target in experiment [2] is NR1/NR2B (Homo sapiens (Human), UniProt Q05586+Q13224). The experiment is described as above. The settings on record: Binned Activity, HEK293 cells expressing NR1/NR2B, Ca2+ influx; binned NR2B NAM IC50.
Sequence of NR1/NR2B (Homo sapiens (Human), UniProt Q05586+Q13224) (Q13224 27-1484, other chains not shown): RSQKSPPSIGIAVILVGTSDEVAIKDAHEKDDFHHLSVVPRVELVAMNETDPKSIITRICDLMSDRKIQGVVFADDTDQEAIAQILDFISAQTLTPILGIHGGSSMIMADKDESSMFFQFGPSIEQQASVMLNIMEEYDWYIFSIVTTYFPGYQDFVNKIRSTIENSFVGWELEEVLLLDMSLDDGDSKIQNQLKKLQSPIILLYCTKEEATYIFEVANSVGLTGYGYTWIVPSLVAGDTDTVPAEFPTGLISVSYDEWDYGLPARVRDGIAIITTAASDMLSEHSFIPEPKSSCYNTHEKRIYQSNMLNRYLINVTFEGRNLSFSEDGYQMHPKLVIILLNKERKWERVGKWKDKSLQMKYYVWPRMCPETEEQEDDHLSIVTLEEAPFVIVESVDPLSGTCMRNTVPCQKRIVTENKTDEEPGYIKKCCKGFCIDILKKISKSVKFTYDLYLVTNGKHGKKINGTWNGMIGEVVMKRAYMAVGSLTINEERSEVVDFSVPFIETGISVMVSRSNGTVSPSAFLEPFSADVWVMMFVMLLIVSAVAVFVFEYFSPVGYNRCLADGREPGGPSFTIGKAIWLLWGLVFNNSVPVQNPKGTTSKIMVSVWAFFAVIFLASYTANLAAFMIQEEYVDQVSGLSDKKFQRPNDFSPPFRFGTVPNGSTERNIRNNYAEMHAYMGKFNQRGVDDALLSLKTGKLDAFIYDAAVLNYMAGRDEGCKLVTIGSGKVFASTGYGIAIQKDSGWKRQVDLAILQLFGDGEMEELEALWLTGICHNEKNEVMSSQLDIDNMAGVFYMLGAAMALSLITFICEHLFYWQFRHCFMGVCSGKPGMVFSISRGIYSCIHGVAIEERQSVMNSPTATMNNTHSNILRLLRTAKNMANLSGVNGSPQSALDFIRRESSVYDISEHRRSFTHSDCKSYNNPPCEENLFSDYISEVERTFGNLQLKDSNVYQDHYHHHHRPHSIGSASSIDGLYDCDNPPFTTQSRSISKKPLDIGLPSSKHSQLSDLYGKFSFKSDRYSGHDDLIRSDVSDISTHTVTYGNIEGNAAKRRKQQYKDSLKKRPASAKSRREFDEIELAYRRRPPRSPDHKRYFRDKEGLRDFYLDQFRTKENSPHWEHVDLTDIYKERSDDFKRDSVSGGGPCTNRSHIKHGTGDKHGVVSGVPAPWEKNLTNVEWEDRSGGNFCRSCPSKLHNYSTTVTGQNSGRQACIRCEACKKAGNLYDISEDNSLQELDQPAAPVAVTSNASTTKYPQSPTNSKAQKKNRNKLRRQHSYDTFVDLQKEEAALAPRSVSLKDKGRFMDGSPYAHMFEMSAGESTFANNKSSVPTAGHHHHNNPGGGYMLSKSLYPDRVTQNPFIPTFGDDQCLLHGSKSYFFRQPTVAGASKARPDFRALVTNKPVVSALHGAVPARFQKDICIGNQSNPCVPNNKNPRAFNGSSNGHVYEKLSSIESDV
Procedure: as §1, §2, §3
Setting [3] is: read-out: NR2B NAM IC50, HEK293 cells expressing NR1/NR2B, Ca2+ influx.
[4] abbreviates: read-out: Binned Activity, HEK293 cells expressing NR1/NR2B, Ca2+ influx, binned NR2B NAM IC50.

Read-outs that look alike come from different tables or passages of the source.

Sequence of NR1/NR2B (Homo sapiens (Human), UniProt Q13224) (Q13224 27-1484, other chains not shown): as above

Take `O=C(CCN1C[C@@H]2C[C@@](O)(c3ccccc3)C[C@@H]2C1)c1ccc(O)cc1` [Example 97, 3-(5-hydroxy-5-phenylhexahydrocyclo-penta[c]pyrrol-2(1H)-yl)-1-(4-hydroxyphenyl)propan-1-one]: the IC50 on NR1/NR2B [1] (setting [3]) is 10 µM; against NR1/NR2B [2], over 10 µM.

Consider `CS(=O)(=O)Nc1ccc(C(=O)CN2C[C@@H]3C[C@@](O)(Cc4ccccc4)C[C@@H]3C2)nc1` [Example 235, N-(6-(2-((3aR,5r,6aS)-5-benzyl-5-hydroxyhexahydrocyclo-penta[c]pyrrol-2(1H)-yl)acetyl)pyridin-3-yl)methanesulfonamide], for which the IC50 at NR1/NR2B [1] (setting [3]) is 10 µM; against NR1/NR2B [2] it was over 10 µM.

In the case of `O=C(CN1C[C@@H]2C[C@@](O)(Cc3ccccc3)C[C@@H]2C1)c1cc(F)c(O)c(F)c1` [Example 159, 2-((3aR,5r,6aS)-5-benzyl-5-hydroxyhexahydrocyclo-penta[c]pyrrol-2(1H)-yl)-1-(3,5-difluoro-4-hydroxyphenyl)ethanone], the IC50 is 11.6 µM on NR1/NR2B [1] (setting [3]) and over 10 µM against NR1/NR2B [2].

In the case of `O=C(CN1C[C@@H]2C[C@@](O)(Cc3ccc(Cl)cc3)C[C@@H]2C1)c1ccc(O)cn1` [Example 218, 2-((3aR,5r,6aS)-5-(4-chlorobenzyl)-5-hydroxyhexaydrocyclo-penta[c]pyrrol-2(1H)-yl)-1-(5-hydroxypyridin-2-yl)ethanone], the IC50 on NR1/NR2B [1] (setting [3]) is 0.374 µM; at NR1/NR2B [2], 0.1 to 1 µM.

For `O=C(CN1C[C@H]2C[C@@H](CCc3ccccc3)C[C@H]2C1)c1ccc(O)cc1` [Example 324, 1-(4-hydroxyphenyl)-2-((3aR,5r,6aS)-5-phenethylhexa-hydrocyclo-penta[c]pyrrol-2(1H)-yl)ethanone], the results for the IC50 on NR1/NR2B [1] (setting [3]) and against NR1/NR2B [2] were 0.215 µM and 0.1 to 1 µM, respectively.

Turning to `O=C(Nc1cccnc1)N1C[C@H]2C[C@@H](c3ccccc3)C[C@H]2C1` [Example 111, 5-phenyl-N-(pyridin-3-yl)-octahydrocyclopenta[c] pyrrole-2-carboxamide], the IC50 at NR1/NR2B [1] (setting [3]) was 10 µM; on NR1/NR2B [2], over 10 µM.

Regarding `O=C(CN1C[C@@H]2C[C@@](O)(Cc3ccccc3)C[C@@H]2C1)c1ccc(-c2ccc(O)cc2)cc1` [Example 257, 2-((3aR,5r,6aS)-5-benzyl-5-hydroxyhexahydrocyclo-penta[c]pyrrol-2(1H)-yl)-1-(4′-hydroxy-[1,1′-biphenyl]-4-yl)ethanone], the IC50 at NR1/NR2B [1] (setting [3]) is 10 µM; on NR1/NR2B [2], over 10 µM.

Turning to `COc1cccc(-c2ccc(C(=O)CN3C[C@@H]4C[C@@](O)(Cc5ccccc5)C[C@@H]4C3)cc2)c1` [Example 265, 2-((3aR,5r,6aS)-5-benzyl-5-hydroxyhexahydrocyclo-penta[c]pyrrol-2(1H)-yl)-1-(3′-methoxy-[1,1′-biphenyl]-4-yl)ethanone], the figures for the IC50 at NR1/NR2B [1] (setting [3]) and at NR1/NR2B [2] were 10 µM and over 10 µM, respectively.

As to `O=C(Nc1cccnc1)N1C[C@@H]2C[C@@](O)(c3ccccc3)C[C@@H]2C1` [Example 44], the IC50 was 10 µM on NR1/NR2B [1] (setting [3]) and over 10 µM at NR1/NR2B [2].

With `COc1ccc(C[C@]2(O)C[C@H]3CN(CC(=O)c4ccc(O)cc4)C[C@H]3C2)cc1` [Example 184, 2-[(3aR,5R,6aS)-5-hydroxy-5-[(4-methoxyphenyl)methyl]-octahydrocyclopenta[c]pyrrol-2-yl]-1-(4-hydroxyphenyl)ethan-1-one], the IC50 at NR1/NR2B [1] (setting [3]) was 0.0433 µM; against NR1/NR2B [2], under 0.1 µM.

For the compound `O[C@@]1(c2ccc(F)cc2)C[C@H]2CN(c3cccc(C(F)(F)F)n3)C[C@H]2C1` [Example 81, 5-(4-fluorophenyl)-2-[6-(trifluoromethyl)pyridin-2-yl]-octahydrocyclopenta[c] pyrrol-5-ol], the IC50 at NR1/NR2B [1] (setting [3]) was 10 µM; against NR1/NR2B [2], over 10 µM.

Consider `O=C(COc1ccc(C(=O)CN2C[C@@H]3C[C@@](O)(Cc4ccccc4)C[C@@H]3C2)cc1F)c1ccc(O)c(F)c1` [Example 172, 2-((3aR,5r,6aS)-5-benzyl-5-hydroxyhexahydrocyclo-penta[c]pyrrol-2(1H)-yl)-1-(3-fluoro-4-(2-(3-fluoro-4-hydroxyphenyl)-2-oxoethoxy)phenyl)ethanone], for which the IC50 at NR1/NR2B [1] (setting [3]) was 10 µM; at NR1/NR2B [2], over 10 µM.

Turning to `COc1ccccc1NC(=O)N1C[C@@H]2C[C@@](O)(Cc3ccccc3)C[C@@H]2C1` [Example 128, (3aR,5r,6aS)-5-benzyl-5-hydroxy-N-(2-meth-oxyphenyl)hexahydro-cyclopenta[c]pyrrole-2(1H)-carboxamide], the values for the IC50 at NR1/NR2B [1] (setting [3]) and against NR1/NR2B [2] were 10 µM and over 10 µM, respectively.

Take `COc1ccc(C)cc1NC(=O)N1C[C@@H]2C[C@@](O)(c3ccc(F)cc3)C[C@@H]2C1` [Example 42]: the IC50 on NR1/NR2B [1] (setting [3]) is 10 µM; on NR1/NR2B [2] it was over 10 µM.

`O=C1Cc2cc(C(=O)CN3C[C@@H]4C[C@@](O)(Cc5ccccc5)C[C@@H]4C3)ccc2N1` [Example 147, 5-(2-((3aR,5r,6aS)-5-benzyl-5-hydroxyhexahydrocyclo-penta[c]pyrrol-2(1H)-yl)acetyl)indolin-2-one]: the IC50 at NR1/NR2B [1] (setting [3]) was 0.352 µM; against NR1/NR2B [2] it was 0.1 to 1 µM.

For the compound `Oc1ccc([C@@H](O)CN2C[C@@H]3C[C@@](O)(Cc4ccccc4)C[C@@H]3C2)cc1` [Example 136, (3aR,5R,6aS)-5-benzyl-2-((R)-2-hydroxy-2-(4-hydroxyphenyl)ethyl)octa-hydrocyclopenta[c]pyrrol-5-ol], the figures for the IC50 on NR1/NR2B [1] (setting [3]) and against NR1/NR2B [2] were 0.0237 µM and under 0.1 µM, respectively.

For the compound `Oc1ccc(C(O)CCN2C[C@@H]3C[C@@](O)(c4ccccc4)C[C@@H]3C2)cc1` (stereo partly shown) [Example 98, 2-(3-hydroxy-3-(4-hydroxyphenyl)propyl)-5-phenyloctahydrocyclopen-ta[c]pyrrol-5-ol], the figures for the IC50 on NR1/NR2B [1] (setting [3]) and against NR1/NR2B [2] were 10 µM and over 10 µM, respectively.

For `O=C(CN1C[C@@H]2C[C@@](O)(Cc3ccc(F)c(F)c3)C[C@@H]2C1)c1ccc(O)cn1` [Example 239, 2-((3aR,5r,6aS)-5-(3,4-difluorobenzyl)-5-hydroxyhexahydrocyclo-penta[c]pyrrol-2(1H)-yl)-1-(5-hydroxypyridin-2-yl)ethanone], the IC50 at NR1/NR2B [1] (setting [3]) is 10 µM; on NR1/NR2B [2] it was over 10 µM.

`O=C(CN1C[C@@H]2C[C@@](O)(Cc3ccccc3)C[C@@H]2C1)c1ccc(O)cn1` [Example 140, 2-((3aR,5r,6S)-5-benzyl-5-hydroxyhexahydrocyclo-penta[c]pyrrol-2(1H)-yl)-1-(5-hydroxypyridin-2-yl)ethanone]: the IC50 was 6.94 µM on NR1/NR2B [1] (setting [3]) and 1 to 10 µM against NR1/NR2B [2].

With `CS(=O)(=O)Nc1ccc(C(=O)CN2C[C@@H]3C[C@@](O)(Cc4ccccc4)C[C@@H]3C2)cc1` [Example 146, N-(4-(2-((3aR,5r,6aS)-5-benzyl-5-hydroxyhexahydrocyclo-penta[c]pyrrol-2(1H)-yl)acetyl)phenyl)methane-sulfonamide], the IC50 on NR1/NR2B [1] (setting [3]) is 0.326 µM; against NR1/NR2B [2], 0.1 to 1 µM.

In the case of `O=C(CN1C[C@@H]2CN(Cc3ccccc3)C[C@@H]2C1)c1ccc(O)cc1` [Example 326, 2-(5-benzylhexahydropyrrolo [3,4-c]pyrrol-2(1H)-yl)-1-(4-hydroxy-phenyl)ethanone], the results for the IC50 on NR1/NR2B [1] (setting [3]) and against NR1/NR2B [2] were 0.682 µM and 0.1 to 1 µM, respectively.

As for `O=C(CN1C[C@@H]2CC(O)(CCc3ccccc3)C[C@@H]2C1)c1ccc(-c2ccccc2)cc1` (stereo partly shown) [Example 269, 2-[5-hydroxy-5-(2-phenylethyl)-octahydrocyclopenta[c]pyrrol-2-yl]-1-(4-phenylphenyl)ethan-1-one], the values for the IC50 at NR1/NR2B [1] (setting [3]) and against NR1/NR2B [2] were 10 µM and over 10 µM, respectively.

In the case of `O=C(CN1C[C@@H]2C[C@@](O)(Cc3ccccc3F)C[C@@H]2C1)c1ccc(O)cn1` [Example 221, 2-(5-(2-fluorobenzyl)-5-hydroxyhexahydrocyclo-penta[c]pyrrol-2(1H)-yl)-1-(5-hydroxypyridin-2-yl)ethanone], the figures for the IC50 on NR1/NR2B [1] (setting [3]) and against NR1/NR2B [2] were 0.998 µM and 0.1 to 1 µM, respectively.

As for `Cc1ccc(NC(=O)N2C[C@@H]3C[C@@](O)(c4ccccc4)C[C@@H]3C2)cc1` [Example 3, 5-hydroxy-N-(4-methylphenyl)-5-phenyl-octahydrocyclopenta[c] pyrrole-2-carboxamide], the IC50 on NR1/NR2B [1] (read-out: NR2B NAM IC50) is 10 µM; at NR1/NR2B [2] it was over 10 µM.

As to `CC(C)(O)c1ccc(C(=O)CN2C[C@@H]3C[C@@](O)(Cc4ccccc4)C[C@@H]3C2)cc1` [Example 138, 2-((3aR,5r,6aS)-5-benzyl-5-hydroxyhexahydrocyclo-penta[c]pyrrol-2(1H)-yl)-1-(4-(2-hydroxypropan-2-yl)phenyl)ethanone], the IC50 is 10 µM on NR1/NR2B [1] (setting [3]) and over 10 µM at NR1/NR2B [2].

As for `O=C(Nc1ccc(F)cc1)N1C[C@H]2C[C@@H](c3ccccc3)C[C@H]2C1` [Example 101, N-(4-fluorophenyl)-5-phenyl-octahydrocylcopenta[c] pyrrole-2-carboxamide], the IC50 on NR1/NR2B [1] (setting [3]) is 10 µM; against NR1/NR2B [2] it was over 10 µM.

With `O=C(CN1CC2CC(O)(c3ccccc3)CC2C1)c1ccccc1` (stereo not shown) [Example 57, 2-(5-hydroxy-5-phenylhexahydrocyclo-penta[c]pyrrol-2(1H)-yl)-1-phenylethanone], the IC50 is over 10 µM on NR1/NR2B [1] (setting [4]) and 10 µM on NR1/NR2B [1] (setting [3]).

In the case of `O=C(CN1CC2CC(Cc3ccccc3)CC2C1)c1ccc(O)cn1` (stereo not shown) [Example 297, 2-{5-benzyl-octahydrocyclopenta[c]pyrrol-2-yl}-1-(5-hydroxypyridin-2-yl)ethan-1-one], the IC50 on NR1/NR2B [1] (setting [4]) is 0.1 to 1 µM; on NR1/NR2B [1] (setting [3]), 0.792 µM.

As for `OC(CN1C[C@@H]2CC(O)(Cc3ccccc3)C[C@@H]2C1)c1ccc(F)cc1` (mixture of isomers) [Example 289, rac-(3aR,5r,6aS)-5-benzyl-2-(2-(4-fluorophenyl)-2-hydroxyethyl)octahydro-cyclopenta[c]pyrrol-5-ol], the values for the IC50 at NR1/NR2B [1] (setting [4]) and at NR1/NR2B [1] (setting [3]) were over 10 µM and 10 µM, respectively.

The record behind these values is patent publication US10052306B2 (LUC THERAPEUTICS, INC., priority 2013, dated 2018).
